Measurements taken from the CheMixHub viscosity set.
Where “and” joins values, the source holds several entries; their conditions need not be identical. Equal entries are not always repeated.

Assay: xn = mol fraction of the nth substance listed

CCN(CC)CCO + NCCO
Conditions	viscosity [mPa·s]
293.15 K, 101 kPa, x2 = 0.9	22.75

CC(=O)O.NCCO + O
viscosity [mPa·s], 101 kPa
Conditions	x1 = 0.0075	x1 = 0.0163	x2 = 0.8718	x2 = 0.9099	x2 = 0.9403	x2 = 0.9641	x2 = 0.9743
293.15 K	1.308	1.512	7.458	4.47	2.88	2.01	1.71
298.15 K	1.17	1.344	6.312	3.84	2.513	1.788	1.512
303.15 K	1.05	1.218	5.448	3.354	2.232	1.584	1.35

NCCCC[C@H](N)C(=O)O + O
viscosity [mPa·s], 101 kPa
Conditions	293.15 K	298.15 K	303.15 K	308.15 K	313.15 K
x1 = 0.006	1.261	1.129	1.016	0.9447	0.8984
x1 = 0.014	1.324	1.194	1.079	1.013	0.9598

O=C1O[C@H]([C@@H](O)CO)C(O)=C1O + O
Conditions	viscosity
293.15 K, 101 kPa, x1 = 0.00359	1.078 mPa·s and 1.081 mPa·s and 1.077 mPa·s
293.15 K, 101 kPa, x1 = 0.005375	1.124 mPa·s and 1.122 mPa·s and 1.122 mPa·s
293.15 K, 101 kPa, x1 = 0.007156	1.162 mPa·s
293.15 K, 101.3 kPa, x1 = 0.0001803	1.013 mPa·s
293.15 K, 101.3 kPa, x1 = 0.00036	1.021 mPa·s
293.15 K, 101.3 kPa, x1 = 0.0005398	1.029 mPa·s
298.15 K, 101 kPa, x1 = 0.000364	0.899 mPa·s and 0.8985 mPa·s
298.15 K, 101 kPa, x1 = 0.000657	0.904 mPa·s and 0.9039 mPa·s
298.15 K, 101 kPa, x1 = 0.001	0.823 mPa·s
298.15 K, 101 kPa, x1 = 0.00125	0.916 mPa·s and 0.9161 mPa·s
298.15 K, 101 kPa, x1 = 0.00155	0.922 mPa·s and 0.9216 mPa·s
298.15 K, 101 kPa, x1 = 0.001665	0.9245 mPa·s
298.15 K, 101 kPa, x1 = 0.001856	0.927 mPa·s and 0.9273 mPa·s
298.15 K, 101 kPa, x1 = 0.002776	0.9451 mPa·s
298.15 K, 101 kPa, x1 = 0.003	0.835 mPa·s
298.15 K, 101 kPa, x1 = 0.005	0.847 mPa·s
298.15 K, 101 kPa, x1 = 0.005396	0.9979 mPa·s
298.15 K, 101 kPa, x1 = 0.009999	1.1 mPa·s
298.15 K, 101.3 kPa, x1 = 0.0001803	0.905 mPa·s
298.15 K, 101.3 kPa, x1 = 0.00036	0.913 mPa·s
298.15 K, 101.3 kPa, x1 = 0.0005398	0.918 mPa·s
303.15 K, 101 kPa, x1 = 0.001798	0.8267 mPa·s and 0.825 mPa·s
303.15 K, 101 kPa, x1 = 0.0018	0.8248 mPa·s
303.15 K, 101 kPa, x1 = 0.00359	0.8564 mPa·s and 0.8524 mPa·s
303.15 K, 101 kPa, x1 = 0.005375	0.8897 mPa·s and 0.8876 mPa·s and 0.8876 mPa·s
303.15 K, 101 kPa, x1 = 0.007154	0.9213 mPa·s and 0.9197 mPa·s
303.15 K, 101 kPa, x1 = 0.007156	0.916 mPa·s
303.15 K, 101.3 kPa, x1 = 0.0001803	0.812 mPa·s
303.15 K, 101.3 kPa, x1 = 0.00036	0.817 mPa·s
303.15 K, 101.3 kPa, x1 = 0.0005398	0.821 mPa·s
308.15 K, 101 kPa, x1 = 0.000364	0.724 mPa·s and 0.7239 mPa·s
308.15 K, 101 kPa, x1 = 0.000657	0.728 mPa·s and 0.7282 mPa·s
308.15 K, 101 kPa, x1 = 0.0007676	0.7308 mPa·s
308.15 K, 101 kPa, x1 = 0.00125	0.738 mPa·s and 0.7377 mPa·s
308.15 K, 101 kPa, x1 = 0.00155	0.743 mPa·s and 0.7431 mPa·s
308.15 K, 101 kPa, x1 = 0.001665	0.7425 mPa·s
308.15 K, 101 kPa, x1 = 0.001856	0.748 mPa·s and 0.7477 mPa·s
308.15 K, 101 kPa, x1 = 0.002776	0.7609 mPa·s
308.15 K, 101 kPa, x1 = 0.005396	0.8018 mPa·s
308.15 K, 101 kPa, x1 = 0.006205	0.8139 mPa·s
308.15 K, 101 kPa, x1 = 0.009999	0.8791 mPa·s
308.15 K, 101.3 kPa, x1 = 0.0001803	0.733 mPa·s
308.15 K, 101.3 kPa, x1 = 0.00036	0.738 mPa·s
308.15 K, 101.3 kPa, x1 = 0.0005398	0.743 mPa·s
313.15 K, 101 kPa, x1 = 0.001798	0.6755 mPa·s and 0.6783 mPa·s
313.15 K, 101 kPa, x1 = 0.0018	0.6734 mPa·s
313.15 K, 101 kPa, x1 = 0.00359	0.6979 mPa·s
313.15 K, 101 kPa, x1 = 0.005375	0.7227 mPa·s and 0.7222 mPa·s
313.15 K, 101 kPa, x1 = 0.007154	0.7485 mPa·s and 0.7473 mPa·s
313.15 K, 101 kPa, x1 = 0.007156	0.7432 mPa·s
313.15 K, 101.3 kPa, x1 = 0.0001803	0.668 mPa·s
313.15 K, 101.3 kPa, x1 = 0.00036	0.671 mPa·s
313.15 K, 101.3 kPa, x1 = 0.0005398	0.676 mPa·s
318.15 K, 101 kPa, x1 = 0.000364	0.6 mPa·s and 0.5998 mPa·s
318.15 K, 101 kPa, x1 = 0.000657	0.604 mPa·s and 0.6039 mPa·s
318.15 K, 101 kPa, x1 = 0.0007676	0.6078 mPa·s
318.15 K, 101 kPa, x1 = 0.000952	0.608 mPa·s and 0.6081 mPa·s
318.15 K, 101 kPa, x1 = 0.00125	0.612 mPa·s and 0.6122 mPa·s
318.15 K, 101 kPa, x1 = 0.00155	0.616 mPa·s
318.15 K, 101 kPa, x1 = 0.001665	0.6147 mPa·s
318.15 K, 101 kPa, x1 = 0.001856	0.621 mPa·s
318.15 K, 101 kPa, x1 = 0.002776	0.6296 mPa·s
318.15 K, 101 kPa, x1 = 0.006205	0.6736 mPa·s
318.15 K, 101 kPa, x1 = 0.009999	0.725 mPa·s
323.15 K, 101 kPa, x1 = 0.001798	0.5655 mPa·s and 0.5637 mPa·s
323.15 K, 101 kPa, x1 = 0.0018	0.5616 mPa·s
323.15 K, 101 kPa, x1 = 0.00359	0.5832 mPa·s and 0.5805 mPa·s
323.15 K, 101 kPa, x1 = 0.005375	0.6022 mPa·s and 0.6013 mPa·s
323.15 K, 101 kPa, x1 = 0.007154	0.6221 mPa·s and 0.6216 mPa·s
323.15 K, 101 kPa, x1 = 0.007156	0.6179 mPa·s

[Cl-].[Cl-].[Sr+2] + O
Conditions	viscosity [mPa·s]
293.15 K, 100 kPa, x1 = 0.0048	1.08
293.15 K, 100 kPa, x1 = 0.01	1.172
293.15 K, 100 kPa, x1 = 0.016	1.283
293.15 K, 100 kPa, x1 = 0.0302	1.607
293.15 K, 100 kPa, x1 = 0.0452	2.065
293.15 K, 101.3 kPa, x1 = 0.0009	1.018
293.15 K, 101.3 kPa, x1 = 0.0018	1.032
293.15 K, 101.3 kPa, x1 = 0.00893	1.146
293.15 K, 101.3 kPa, x1 = 0.0177	1.312
293.15 K, 101.3 kPa, x1 = 0.02631	1.515
293.15 K, 101.3 kPa, x1 = 0.03478	1.722
293.15 K, 101.3 kPa, x1 = 0.0431	1.994
298.15 K, 100 kPa, x1 = 0.0048	0.9628
298.15 K, 100 kPa, x1 = 0.01	1.048
298.15 K, 100 kPa, x1 = 0.016	1.152
298.15 K, 100 kPa, x1 = 0.0302	1.447
298.15 K, 100 kPa, x1 = 0.0452	1.862
298.15 K, 101.3 kPa, x1 = 0.0009	0.9055
298.15 K, 101.3 kPa, x1 = 0.0018	0.9188
298.15 K, 101.3 kPa, x1 = 0.00893	1.025
298.15 K, 101.3 kPa, x1 = 0.0177	1.179
298.15 K, 101.3 kPa, x1 = 0.02631	1.364
298.15 K, 101.3 kPa, x1 = 0.03478	1.552
298.15 K, 101.3 kPa, x1 = 0.0431	1.797
303.15 K, 101.3 kPa, x1 = 0.0009	0.8117
303.15 K, 101.3 kPa, x1 = 0.0018	0.8241
303.15 K, 101.3 kPa, x1 = 0.00893	0.9228
303.15 K, 101.3 kPa, x1 = 0.0177	1.065
303.15 K, 101.3 kPa, x1 = 0.02631	1.236
303.15 K, 101.3 kPa, x1 = 0.03478	1.408
303.15 K, 101.3 kPa, x1 = 0.0431	1.63
308.15 K, 101.3 kPa, x1 = 0.0009	0.7325
308.15 K, 101.3 kPa, x1 = 0.0018	0.7443
308.15 K, 101.3 kPa, x1 = 0.00893	0.8365
308.15 K, 101.3 kPa, x1 = 0.0177	0.9688
308.15 K, 101.3 kPa, x1 = 0.02631	1.127
308.15 K, 101.3 kPa, x1 = 0.03478	1.284
308.15 K, 101.3 kPa, x1 = 0.0431	1.487
313.2 K, 100 kPa, x1 = 0.0302	1.096
313.56 K, 100 kPa, x1 = 0.0048	0.7071
313.9 K, 100 kPa, x1 = 0.01	0.7701
314.54 K, 100 kPa, x1 = 0.0452	1.374
315.86 K, 100 kPa, x1 = 0.016	0.8261
318.15 K, 101.3 kPa, x1 = 0.0009	0.6082
318.15 K, 101.3 kPa, x1 = 0.0018	0.6186
318.15 K, 101.3 kPa, x1 = 0.00893	0.6997
318.15 K, 101.3 kPa, x1 = 0.0177	0.8151
318.15 K, 101.3 kPa, x1 = 0.02631	0.9514
318.15 K, 101.3 kPa, x1 = 0.03478	1.086
318.15 K, 101.3 kPa, x1 = 0.0431	1.258

[K+].[O-][Cl+2]([O-])[O-] + O
viscosity [mPa·s], 100 kPa
Conditions	293.15 K	298.15 K	303.15 K	308.15 K	313.15 K	318.15 K
x1 = 0.000182	0.995	0.888	0.799	0.725	0.661	0.607
x1 = 0.0018	0.984	0.878	0.789	0.717	0.655	0.602
x1 = 0.003608	0.979	0.874	0.788	0.717	0.656	0.603
x1 = 0.005413	0.977	0.873	0.788	0.718	0.656	0.604
x1 = 0.00717	0.977	0.876	0.791	0.72	0.659	0.608
x1 = 0.008941	0.983	0.881	0.797	0.725	0.665	0.613
